Experimental data: patent US20240350481A1, “USE OF N-MYRISTOYL TRANSFERASE (NMT) INHIBITORS IN THE TREATMENT OF CANCER, AUTOIMMUNE DISORDERS, AND INFLAMMATORY DISORDERS” (PACYLEX PHARMACEUTICALS INC., priority 2020, published 2024)

Assays:
[1] = tested on: hematological cancer cell lines; assay: Viability of hematological cancer cell lines in vitro (assay not given); assay type: cell-based; settings: most hematological cancer cell lines in vitro
[2] = tested on: EGFP-N-Ras; assay: Palmitoylation of EGFP-N-Ras in COS-7 cells; assay type: cell-based; settings: 10 μM
Method: The cells pre-treated with inhibitors were then labelled for 4 hrs with 100 μM Alkyne-C16. EGFP-tagged constructs were immunoprecipitated as described and reacted with azido-biotin using click chemistry. Biotinylated-palmitoylated proteins were detected using neutravidin-HRP conjugate and ECL. […] All western blots shown are representative of three independent experiments.

[3] = Toxicology in DLBCL3 patient derived xenograft mice; assay type: in vivo, mouse; settings: for Absolute Basophil cells: normal [0-0.2]; for Absolute Monocyte cells: normal [0-0.4]; for Basophil %: normal [0-2]; for Eosinophil %: normal [0-3.9]; for Monocyte %: normal [0-7.5]; for Absolute Neutrophil cells: normal [0.1- 2.4]; for WBC: normal [1.8-10.7]; for MPV: normal [5-20]; for RDW %: normal [12.4-27]
Method: The dose volume was 10 mL/kg.

[4] = T cell viability by flow cytometry; assay type: cell-based; settings: human, purified T cells from healthy donors; for viability at 4 days, 20 nM: Drug 20 nM; for viability at 4 days, 100 nM: Drug 100 nM; for viability at 4 days, 500 nM: Drug 500 nM
Method: Human peripheral blood mononuclear cells (PBMC) and purified T cells from healthy donors were purchased from […] Technologies (CA). Cells (7.5×10^6/ml) were cultured in the RPMI supplementing with 10% heat-inactivated fetal bovine serum (vWR), 1% penicillin/streptomycin (SigmaMillipore), 1% sodium pyruvate, and 1% non-essential amino acids (Gibco) in 24 well plates in the presence of 100 IU/ml interleukin 2 ([…] Technologies or HIV reagent program (managed by ATCC).
Then, cells were induced with T cell activator ([…]) in the presence of the drugs for 2 more days. After 4 days, the viability of treated T cells was analyzed using Flow cytometry. The supernatants for both PBMC and T cells were collected for further analysis.

[5] = Toxicology in DOHH2 xenograft mice
[6] = DLBCL patient derived xenograft, PCLX-001 20 mg/kg/day
[7] = DLBCL patient derived xenograft, PCLX-001 50 mg/kg/day
[8] = DOHH2 xenograft, PCLX-001 10 mg/kg/day, normal [0-0.2]

Cc1c(N[S+](=O)([O-])c2c(Cl)cc(-c3ccnc(N4CCNCC4)c3)cc2Cl)c(CC(C)C)nn1C [PCLX-001]
IC50 [1]: 50 to 100 nM
palmitoylation of EGFP-N-Ras [2]: does not inhibit
loss of body weight ([3]; 50 mg/kg daily): ~15%
clinical signs, clinical pathology, anatomic pathology ([3]; 20 and 50 mg/kg): no clinical signs of toxicity, effects on clinical pathology parameters, or anatomic pathology findings
Hematocrit % [3, 6]: 47.13 ± 1.1%
MCV [3, 6]: 53.5 ± 0.36
Neutrophil % [3, 6]: 57.17 ± 9.40%
RBC [3, 6]: 8.81 ± 0.15 M/ul
Absolute Basophil cells [3, 6]: 0 ± 0
Absolute Monocyte cells [3, 6]: 0.23 ± 0.06
Basophil % [3, 6]: 0.1 ± 0.04%
Eosinophil % [3, 6]: 0.26 ± 0.08%
Monocyte % [3, 6]: 15.48 ± 4.35%
Absolute Neutrophil cells [3, 6]: 0.86 ± 0.22
WBC [3, 6]: 1.49 ± 0.24 K/ul
MPV [3, 6]: 4.93
RDW % [3, 6]: 18.07 ± 0.03%
Hematocrit % [3, 7]: 42.47 ± 4.04%
MCV [3, 7]: 50.83 ± 0.35
Neutrophil % [3, 7]: 58.04%
RBC [3, 7]: 8.36 ± 0.83 M/ul
Absolute Basophil cells [3, 7]: 0 ± 0
Absolute Monocyte cells [3, 7]: 0.37 ± 0.07
Basophil % [3, 7]: 0.04 ± 0.04%
Eosinophil % [3, 7]: 0.32 ± 0.1%
Monocyte % [3, 7]: 17.24%
Absolute Neutrophil cells [3, 7]: 1.28 ± 0.34
Absolute Lymphocyte cells ([3]; DLBCL patient derived xenograft, PCLX-001 50 mg/kg/day, normal [0.9-9.3]): 0.52 ± ? .12
WBC [3, 7]: 2.17 ± 0.5 K/ul
MPV [3, 7]: 5.27 ± 0.18
RDW % [3, 7]: 20.37 ± 0.37%
MCH ([3]; DLBCL patient derived xenograft, PCLX-001 50 mg/kg/day, normal [14.1-19.3]): 12.5 pg
MCHC ([3]; DLBCL patient derived xenograft, PCLX-001 50 mg/kg/day, normal [30.2-34.2]): 24.53 ± 0.24 g/dL
Lymphocyte % ([3]; DLBCL patient derived xenograft, PCLX-001 50 mg/kg/day, normal [55.8-91.6]): 24.36 ± 2.93%
viability at 4 days, 20 nM ([4]; T cells viability (#1)): 9%
viability at 4 days, 100 nM ([4]; T cells viability (#1)): 8%
viability at 4 days, 500 nM ([4]; T cells viability (#1)): 10%
viability at 4 days, 20 nM ([4]; T cells viability (#2)): 66%
viability at 4 days, 100 nM ([4]; T cells viability (#2)): 60%
viability at 4 days, 500 nM ([4]; T cells viability (#2)): 62%
viability at 4 days, 20 nM ([4]; T cells viability (#3)): 76%
viability at 4 days, 100 nM ([4]; T cells viability (#3)): 71%
viability at 4 days, 500 nM ([4]; T cells viability (#3)): 68%
neutrophil and monocyte counts ([5]; 50 mg/kg daily): lower than normal in all three mice
RBC counts ([5]; 50 mg/kg every other day): lower than normal in all three mice
femoral bone marrow histopathology ([5]; 50 mg/kg groups): no histopathologic findings
Reticulocyte % ([5]; DOHH2 xenograft, PCLX-001 10 mg/kg/day): 8.08 ± 1.58%
Absolute Basophil cells [5, 8]: 0.01 ± 0 K/ul
Absolute Eosinophil cells [5, 8]: 0.05 ± 0.02 K/ul
Absolute Monocyte cells ([5]; DOHH2 xenograft, PCLX-001 10 mg/kg/day, normal [0-0.4]): 0.52 ± 0.06 K/ul
Absolute Neutrophil cells ([5]; DOHH2 xenograft, PCLX-001 10 mg/kg/day, normal [0.1-2.4]): 4.89 ± 0.34 K/ul
Absolute Lymphocyte cells ([5]; DOHH2 xenograft, PCLX-001 10 mg/kg/day, normal [0.9-9.3]): 0.83 ± ? .19 K/ul
WBC ([5]; DOHH2 xenograft, PCLX-001 10 mg/kg/day, normal [1.8-10.7]): 6.3 ± 0.12 K/ul
MPV ([5]; DOHH2 xenograft, PCLX-001 10 mg/kg/day, normal [5-20]): 6.77 ± 0.18 fL
RBC ([5]; DOHH2 xenograft, PCLX-001 10 mg/kg/day, normal [6.36-9.42]): 9.45 ± 0.1 M/ul
Hemoglobin ([5]; DOHH2 xenograft, PCLX-001 10 mg/kg/day, normal [11-15.1]): 14.13 ± 0.18 g/dL
RDW % ([5]; DOHH2 xenograft, PCLX-001 10 mg/kg/day, normal [12.4-27]): 25.97 ± 0.46%
MCH ([5]; DOHH2 xenograft, PCLX-001 10 mg/kg/day, normal [14.1-19.3]): 14.93 ± 0.03 pg
MCHC ([5]; DOHH2 xenograft, PCLX-001 10 mg/kg/day, normal [30.2-34.2]): 32.73 ± 0.07 g/dL
Hematocrit % ([5]; DOHH2 xenograft, PCLX-001 10 mg/kg/day, normal [35.1-45.4]): 43.2 ± 0.61%
MCV ([5]; DOHH2 xenograft, PCLX-001 10 mg/kg/day, normal [45.4-60.3]): 45.7 ± 0.2 fL
Platelets ([5]; DOHH2 xenograft, PCLX-001 10 mg/kg/day, normal [592-2972]): 1490 ± 91.31 K/uL
Reticulocyte % ([5]; DOHH2 xenograft, PCLX-001 20 mg/kg/day): 7.21 ± 0.49%
